Measured values as given in patent US9174994B2, “Enhanced treatment regimens using mTor inhibitors” (INTELLIKINE LLC, priority 2011, dated 2015).

Key:
[1] = tested on: TORC1 (p4EBP1 and pS6) and TORC2 (pPRAS40); assay: Human skin immunohistochemistry assay (skin biopsies, Phase I trial); assay type: in vivo
Method: Skin tissue was fixed in 10% neutral-buffered formalin solution for 24 hours and then processed and embedded in paraffin block. Sections (4 μm) were cut and mounted onto microscopic slides. Sections were incubated with primary antibodies (p4EBP1, pS6, or pRAS40) overnight and developed using a chromogenic substrate.
Pharmacodynamic (PD) endpoints were evaluated in surrogate (peripheral blood cells [PBCs], skin) and tumor tissues for the phosphorylation of TORC1-dependent markers (4EBP1/S6), and TORC2-dependent markers (AKT/PRAS40). 50 patients were treated in 3 intermittent dosing regimens; 21 in 6 cohorts ranging 7-40 mg QW, 20 in 5 cohorts ranging 6-20 mg QDx3d QW, and 9 in 3 cohorts ranging 7-13 mg QDxSd QW. […] The MTD for intermittent dosing was not reached. All adverse events (AEs) reported were reversible. The most common (≧20%, n=35) AEs considered possibly related to compound A reported in all 3 dosing regimens included nausea (51%), hyperglycemia (37%), mucosal inflammation (29%), rash (23%), asthenia (23%), vomiting (26%), and diarrhea (20%). The majority of AEs considered possibly related to compound A in any regimen were Grade 1 or 2. The only reported Grade ≧3 AE (≧5%) possibly related to compound A in 3 regimens was lymphopenia (6%). Tables 4-9 show summaries of observed adverse events for various treatment regimens of the invention.

[2] = Phase I clinical trial: plasma pharmacokinetics; assay type: in vivo, human
Method: (§1) Adult patients with histologically confirmed advanced solid tumors were enrolled in a 3+3 dose escalation Phase I study evaluating 3 intermittent schedules of administration for compound A: QW (once weekly), QD×3d QW (3 days on 4 days off), and QD×5d QW (5 days on 2 days off), in comparison with daily dosing (QD). Safety, maximum tolerated dose (MTD), pharmacokinetics (PK) and preliminary antitumor activity were evaluated.

advanced solid tumors = assay: Phase I clinical trial: preliminary antitumor activity; assay type: in vivo, human; settings: patients with lung and renal cancer
Method: as §1

For `CC(C)n1nc(-c2ccc3oc(N)nc3c2)c2c(N)ncnc21` [compound A], the “PD (% inhibition, H score) Skin: 4EBP1/PRAS40” value ([1]; 10 mg Q5D) was 80%, the “PD (% inhibition, H score) Skin: 4EBP1/PRAS40” value ([1]; 13 mg Q5D) was 80% and the “PD (% inhibition, H score) Skin: 4EBP1/PRAS40” value ([1]; 16 mg Q3D) was 80%. The “PD (% inhibition, H score) Skin: 4EBP1/PRAS40” value ([1]; 20 mg Q3D) was 80%, the “PD (% inhibition, H score) Skin: 4EBP1/PRAS40” value ([1]; 30 mg QW) was 80% and the “PD (% inhibition, H score) Skin: 4EBP1/PRAS40” value ([1]; 40 mg QW) was 80%. For the same compound, the “pathway inhibition of TORC1 (p4EBP1 and pS6) and TORC2 (pPRAS40)” value ([1]; skin biopsies) was 60-100%, the “Time per week (hrs) above 100 nM plasma conc.” value (from here on “Time per week”) ([2]; 6 mg QD) was 20 h and the “Time per week” value ([2]; 10 mg Q5D) was 25 h. For the same compound, the “Time per week” value ([2]; 13 mg Q5D) was 30 h, the “Time per week” value ([2]; 16 mg Q3D) was 30 h and the “Time per week” value ([2]; 20 mg Q3D) was 35 h. The “Time per week” value ([2]; 30 mg QW) was 15 h, the “Time per week” value ([2]; 40 mg QW) was 20 h and the “Plasma exposures (Cmax and AUC0-24): dose dependence” value ([2]; following oral doses) was “dose-linear plasma PK”. For the same compound, the Preliminary anti-tumor activity (advanced solid tumors) was “Preliminary anti-tumor activity was seen”.
